# Results as given in publication PMC6318325, “The conformational changes coupling ATP hydrolysis and translocation in a bacterial DnaB helicase” (Nature Communications, 2019).
# Experiments:
# HpDnaB (DnaB) [1] = target: T1, HpDnaB (DnaB) (Helicobacter pylori, UniProt O25916); experiment: solid-state […] CP and […] MAS NMR of sedimented complex; conditions: no DNA, NMR at 278 K, nucleotide-binding domain
# T1 construct: full length (488 residues), no tag stated (heparin and anion exchange purification); pACYC-duet1, E. coli BL21 Star (DE3); 13C-15N labelled for NMR; hexameric assembly, dodecamer named in anisotropy assay; nucleotide site at interface of two monomers
# T1 sequence (O25916 1-488): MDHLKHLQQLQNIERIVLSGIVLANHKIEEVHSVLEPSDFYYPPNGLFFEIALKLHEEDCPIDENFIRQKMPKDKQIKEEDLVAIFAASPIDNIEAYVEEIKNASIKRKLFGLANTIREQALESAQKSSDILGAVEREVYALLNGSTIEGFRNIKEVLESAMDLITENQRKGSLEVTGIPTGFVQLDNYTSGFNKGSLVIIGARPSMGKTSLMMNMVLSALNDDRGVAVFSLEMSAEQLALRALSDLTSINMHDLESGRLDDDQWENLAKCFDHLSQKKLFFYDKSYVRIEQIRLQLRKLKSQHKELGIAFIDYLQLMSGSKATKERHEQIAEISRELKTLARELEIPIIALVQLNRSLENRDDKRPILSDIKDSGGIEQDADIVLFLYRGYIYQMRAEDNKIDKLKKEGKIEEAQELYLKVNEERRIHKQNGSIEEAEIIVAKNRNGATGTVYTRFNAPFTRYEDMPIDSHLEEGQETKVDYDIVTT
# HpDnaB (DnaB) [2] = target: T1, HpDnaB (DnaB); experiment: […] solid-state NMR, ATP turned over to ADP during sample preparation; assay type: biochemical; conditions: 5 mM MgCl2, 5 mM ATP, pH 7.5, 130 mM NaCl, 4 °C, no DNA
# [3] = target: T2, HpDnaB replicative helicase (Helicobacter pylori, UniProt O25916 1-488); experiment: fluorescence anisotropy; 0.5 mM ATP, 5 mM MgCl2; Hill fit h 0.6509; Anisotropy: 20 mM Hepes pH 7.5, 5 mM MgCl2, 50 mM potassium acetate, 5% glycerol, 0.2 mg/ml BSA, 0.5 mM nucleotide, 1 nM DNA, 0-8 uM DnaB (dodecamer), temperature not stated; NMR: protein buffer 2.5 mM sodium phosphate pH 7.5, 130 mM NaCl, 278 K; conditions: protein: recombinant; chain copies: 12; label: 5'-FAM; single strand
# T2 sequence: T1 sequence (O25916 1-488)
# [4] = target: T2, HpDnaB replicative helicase; experiment: fluorescence anisotropy; 0.5 mM ADP:AlF4-, 5 mM MgCl2; Hill fit h 1.160; Anisotropy: 20 mM Hepes pH 7.5, 5 mM MgCl2, 50 mM potassium acetate, 5% glycerol, 0.2 mg/ml BSA, 0.5 mM nucleotide, 1 nM DNA, 0-8 uM DnaB (dodecamer), temperature not stated; NMR: protein buffer 2.5 mM sodium phosphate pH 7.5, 130 mM NaCl, 278 K; conditions: protein: recombinant; chain copies: 12; label: 5'-FAM; single strand
# [5] = target: T2, HpDnaB replicative helicase; experiment: fluorescence anisotropy; 0.5 mM AMP-PCP, 5 mM MgCl2; Hill fit; Supplementary Table 4 fit instead prints 47.43 +/- 2.648, h 0.7349 (column order inferred); Anisotropy: 20 mM Hepes pH 7.5, 5 mM MgCl2, 50 mM potassium acetate, 5% glycerol, 0.2 mg/ml BSA, 0.5 mM nucleotide, 1 nM DNA, 0-8 uM DnaB (dodecamer), temperature not stated; NMR: protein buffer 2.5 mM sodium phosphate pH 7.5, 130 mM NaCl, 278 K; conditions: protein: recombinant; chain copies: 12; label: 5'-FAM; single strand
molecule,measurement,setting,value
Nc1ncnc2c1ncn2[C@@H]1O[C@H](COP(=O)(O)OP(=O)(O)O)[C@@H](O)[C@H]1O [ADP],solid-state 31P CP and 13C MAS NMR of sedimented complex,"HpDnaB (DnaB) [1]; 5 mM MgCl2, 5 mM ADP, pH 7.5, 130 mM NaCl",The nucleotides are thus indeed bound to the protein.
Nc1ncnc2c1ncn2[C@@H]1O[C@H](COP(=O)(O)OP(=O)(O)CP(=O)(O)O)[C@@H](O)[C@H]1O [AMP-PCP],solid-state 31P CP and 13C MAS NMR of sedimented complex,"HpDnaB (DnaB) [1]; 5 mM MgCl2, pH 7.5, 130 mM NaCl, 15 mM nucleotide",The nucleotides are thus indeed bound to the protein.
Nc1ncnc2c1ncn2[C@@H]1O[C@H](COP(=O)(O)OP(=O)(O)OP(=O)(O)O)[C@@H](O)[C@H]1O [ATP],"31P solid-state NMR, ATP turned over to ADP during sample preparation",HpDnaB (DnaB) [2],"Addition of ATP to the apo form yields the ADP spectrum, implying that ATP is hydrolyzed"
TTTTTTTTTTTTTTTTTTTT (ssDNA) [5'-FAM-(dT)20],Kd,[3],14 ± 3 nM
same,Kd,[4],0.83 ± 0.03 nM
same,Kd,[5],58 ± 14 nM
